# Experimental data reported in patent publication US11014895B2, “Heterocyclic urea compound, and drug composition and application thereof” (CHINA PHARMACEUTICAL UNIVERSITY, priority 2017, dated 2021).
# Tests used:
# [1] = target: T1, IDO1 enzyme in the Hela cell (Homo sapiens, UniProt P14902); assay: Cell activity: interferon γ-stimulated Hela cells, absorbance of supernatant at 480 nm; format: cell-based; conditions: interferon γ 100 ng/ml, 72 hours
# T1 construct: endogenous in cells; host or cells: HeLa cells stimulated with interferon γ (100 ng/ml)
# Procedure: (2) Method for Determining Cell Activity
# Hela cells were cultured and passaged in a DMEM medium supplemented with antibiotics in a 37° C. CO2 incubator, inoculated into a 96-well plate for overnight culture, then 1 μl of heterocyclic urea compound with appropriate concentration was added to each well, and then 100 μl of interferon γ (final concentration was 100 ng/ml) was added. After the cells were continuously cultured for 72 hours, 70 μl of cell culture supernatant was added to a 96-well V-bottom plate, 5 μl of trichloroacetic acid (6.1 N) was added to each well, incubated at 50° C. for 30 min, then taken out and centrifuged at […] for 10 min. The above centrifuged supernatant was transferred to a 384-well microplate (20 μl/well), then 20 μl of 2% didimethylaminobenzaldehyde acetic acid solution was added to each well, shaken and mixed evenly, then photometric absorption was performed at 480 nm, and values were measured.
# IDO1 enzyme = IDO1 enzyme (Homo sapiens, UniProt P14902); assay: Determination of biochemical activity of IDO1 enzyme (absorbance at 320 nm); conditions: room temperature, 3 hours
# Procedure: (1) Method for Determining Biochemical Activity of IDO1 Enzyme
# Firstly, 15 μl of buffer solution of sodium hydrogen phosphate (PH:7-8), 5 μl of reaction buffer solution containing a proper amount of IDO-1 enzyme and heterocyclic urea compound prepared by the invention were added into wells of a microplate, mixed evenly, and reacted at room temperature for 3 hours; then a light absorption value at 320 nm wavelength was detected by using Envision Multilabel Reader of PE company, an inhibition rate of the heterocyclic urea compound on the enzyme reaction was calculated according to an absorption ratio, and an IC50 value of the heterocyclic urea compound was calculated through analysis by GraphPad.
# Sequence of IDO1 enzyme (P14902 whole entry): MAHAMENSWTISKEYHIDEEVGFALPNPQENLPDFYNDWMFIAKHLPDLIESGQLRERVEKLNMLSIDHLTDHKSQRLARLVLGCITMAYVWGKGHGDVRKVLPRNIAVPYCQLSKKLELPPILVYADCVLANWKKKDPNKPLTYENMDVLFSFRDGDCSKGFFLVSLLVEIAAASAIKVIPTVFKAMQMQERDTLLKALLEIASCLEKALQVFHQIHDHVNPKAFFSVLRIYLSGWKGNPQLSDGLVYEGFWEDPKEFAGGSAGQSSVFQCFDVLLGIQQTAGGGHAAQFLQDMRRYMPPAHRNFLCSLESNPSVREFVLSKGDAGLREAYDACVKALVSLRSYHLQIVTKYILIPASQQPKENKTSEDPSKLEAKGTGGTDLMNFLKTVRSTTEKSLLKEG
# T1 sequence (P14902 whole entry): as above
Compound,IC50 [1],IC50 (IDO1 enzyme)
"COc1ccc(NC(=S)Nc2cocc2/C(=N/O)Nc2ccc(F)c(Br)c2)cc1 [Embodiment 136, (Z)-1-(4-(N-(3-bromo-4-fluorophenyl)-N′-hydroxyaminoiminomethyl)-furan-3-substituted)-3-(4-methoxyphenyl)thiourea]",> 1 µM,> 1 µM
"COc1ccc(NC(=O)Nc2conc2/C(=N/O)Nc2ccc(F)c(Br)c2)cc1 [Embodiment 100, (Z)-1-(4-(N-(3-bromo-4-fluorophenyl)-N′-hydroxyaminoiminomethyl)-isoxazole-3-substituted)-4-(4-methoxyphenyl)urea]",0.1 to 1 µM,0.1 to 1 µM
O=C(NCCCO)Nc1conc1/C(=N/O)Nc1ccc(F)c(Br)c1 [Embodiment 109],< 0.001 µM,< 0.001 µM
"O=C(Nc1ccccc1)Nc1nonc1/C(=N/O)Nc1ccc(F)cc1 [Embodiment 51, (Z)-1-(4-(N-(4-fluorophenyl)-N′-hydroxyaminoiminomethyl)-1,2,5-oxadiazole-3-substituted)-3-phenylurea]",0.1 to 1 µM,0.1 to 1 µM
"N=C(Nc1cocc1/C(=N/O)Nc1ccc(F)c(Br)c1)NC1CCCCC1 [Embodiment 162, (Z)-1-(4-(N-(3-bromo-4-fluorophenyl)-N′-hydroxyaminoiminomethyl)-furan-3-substituted)-3-cyclohexylguanidine]",0.1 to 1 µM,0.1 to 1 µM
"O/N=C(\Nc1ccc(F)c(Br)c1)c1conc1NC(=S)Nc1ccccc1 [Embodiment 134, (Z)-1-(4-(N-(3-bromo-4-fluorophenyl)-N′-hydroxyaminoiminomethyl)-isoxazole-3-substituted)-3-(phenyl)thiourea]",0.1 to 1 µM,0.1 to 1 µM
NS(=O)(=O)N1CCN(C(=O)Nc2nonc2/C(=N/O)Nc2ccc(F)cc2)CC1 [Embodiment 56],< 0.001 µM,< 0.001 µM
"CC(C)NC(=O)Nc1cocc1/C(=N/O)Nc1ccc(F)c(Br)c1 [Embodiment 71, (Z)-1-(4-(N-(3-bromo-4-fluorophenyl)-N′-hydroxyaminoiminomethyl)-furan-3-substituted)-3-isopropylurea]",0.1 to 1 µM,0.1 to 1 µM
"O=C(Nc1nonc1/C(=N/O)Nc1ccc(F)c(Cl)c1)NC1CCCCC1 [Embodiment 25, (Z)-1-(4-(N-(3-chloro-4-fluorophenyl)-N′-hydroxyaminoiminomethyl)-1,2,5-oxadiazole-3-substituted)-3-cyclohexylurea]",0.1 to 1 µM,0.1 to 1 µM
"O=C(Nc1cocc1/C(=N/O)Nc1ccc(F)c(Br)c1)Nc1c[nH]c2ccccc12 [Embodiment 74, (Z)-1-(4-(N-(3-bromo-4-fluorophenyl)-N′-hydroxyaminoiminomethyl)-furan-3-substituted)-3-(3-aminoindole)urea]",0.1 to 1 µM,0.1 to 1 µM
O=C(Nc1conc1/C(=N/O)Nc1ccc(F)c(Br)c1)NC1CCCCC1 [Embodiment 103],0.1 to 1 µM,0.1 to 1 µM
"O=C(Nc1nonc1/C(=N/O)Nc1ccc(F)c(Br)c1)Nc1coc2ccccc12 [Embodiment 38, (Z)-1-(4-(N-(3-bromo-4-fluorophenyl)-N′-hydroxyaminoiminomethyl)-1,2,5-oxadiazole-3-substituted)-3-(benzofuran-3-substituted)urea]",0.1 to 1 µM,0.1 to 1 µM

# The next lines start with the values.
IC50 [1],IC50 (IDO1 enzyme),Compound
< 0.001 µM,< 0.001 µM,"CS(=O)(=O)NCCNC(=O)Nc1nonc1/C(=N/O)Nc1ccc(F)c(Cl)c1 [Embodiment 29, (Z)-1-(4-(N-(3-chloro-4-fluorophenyl)-N′-hydroxyaminoiminomethyl)-1,2,5-oxadiazole-3-substituted)-3-(3-methamido-ethyl)urea]"
> 1 µM,> 1 µM,"O/N=C(\Nc1ccc(F)c(Br)c1)c1nonc1NC(=S)NC1CC1 [Embodiment 125, (Z)-1-(4-(N-(3-bromo-4-fluorophenyl)-N′-hydroxyaminoiminomethyl)-1,2,5-oxadiazole-3-substituted)-3-(cyclopropyl)thiourea]"
< 0.001 µM,< 0.001 µM,"N=C(NCCO)Nc1nonc1/C(=N/O)Nc1ccc(F)c(Br)c1 [Embodiment 152, (Z)-1-(4-(N-(3-bromo-4-fluorophenyl)-N′-hydroxyaminoiminomethyl)-1,2,5-oxadiazole-3-substituted)-3-(2-hydroxyethyl)guanidine]"
0.1 to 1 µM,0.1 to 1 µM,"NCCNC(=S)Nc1nonc1/C(=N/O)Nc1ccc(F)c(Br)c1 [Embodiment 129, (Z)-1-(4-(N-(3-bromo-4-fluorophenyl)-N′-hydroxyaminoiminomethyl)-1,2,5-oxadiazole-3-substituted)-3-(2-aminoethyl)thiourea]"
0.1 to 1 µM,0.1 to 1 µM,"O=C(Nc1nonc1/C(=N/O)Nc1ccc(F)c(Br)c1)N1CCNCC1 [Embodiment 48, (Z)-1-(4-(N-(3-bromo-4-fluorophenyl)-N′-hydroxyaminoiminomethyl)-1,2,5-oxadiazole-3-substituted)piperazine-1-carbamide]"
< 0.001 µM,< 0.001 µM,"O/N=C(\Nc1ccc(F)c(Br)c1)c1nonc1NC(=S)Nc1ccc(O)cc1 [Embodiment 117, (Z)-1-(4-(N-(3-bromo-4-fluorophenyl)-N′-hydroxyaminoiminomethyl)-1,2,5-oxadiazole-3-substituted)-3-(4-hydroxyphenyl)thiourea]"
< 0.001 µM,< 0.001 µM,O=C(NCCO)Nc1conc1/C(=N/O)Nc1ccc(F)c(Br)c1 [Embodiment 110]
< 0.001 µM,< 0.001 µM,"OCCNC(=S)Nc1nonc1/C(=N/O)Nc1ccc(F)c(Br)c1 [Embodiment 128, (Z)-1-(4-(N-(3-bromo-4-fluorophenyl)-N′-hydroxyaminoiminomethyl)-1,2,5-oxadiazole-3-substituted)-3-(2-hydroxyethyl)thiourea]"
> 1 µM,> 1 µM,"O=C(Nc1ccncn1)Nc1nonc1/C(=N/O)Nc1ccc(F)c(Br)c1 [Embodiment 45, (Z)-1-(4-(N-(3-bromo-4-fluorophenyl)-N′-hydroxyaminoiminomethyl)-1,2,5-oxadiazole-3-substituted)-3-(pyrimidine-4-substituted)urea]"
< 0.001 µM,< 0.001 µM,"CS(=O)(=O)NCCCNC(=O)Nc1nonc1/C(=N/O)Nc1ccc(F)c(Br)c1 [Embodiment 17, (Z)-1-(4-(N-(3-bromo-4-fluorophenyl)-N′-hydroxyaminoiminomethyl)-1,2,5-oxadiazole-3-substituted)-3-(3-methamido-propyl)urea]"
0.1 to 1 µM,0.1 to 1 µM,"O/N=C(\Nc1ccc(F)c(Br)c1)c1nonc1NC(=S)NC1CCCCC1 [Embodiment 121, (Z)-1-(4-(N-(3-bromo-4-fluorophenyl)-N′-hydroxyaminoiminomethyl)-1,2,5-oxadiazole-3-substituted-)-3-(cyclohexyl)thiourea]"
> 1 µM,> 1 µM,"O/N=C(\Nc1ccc(F)c(Br)c1)c1nonc1NC(=S)Nc1ccc(C(F)(F)F)cc1 [Embodiment 119, (Z)-1-(4-(N-(3-bromo-4-fluorophenyl)-N′-hydroxyaminoiminomethyl)-1,2,5-oxadiazole-3-substituted)-3-(4-trifluoromethylphenyl)thiourea]"
> 1 µM,> 1 µM,"O=C(Nc1ccsc1)Nc1nonc1/C(=N/O)Nc1ccc(F)c(Br)c1 [Embodiment 42, (Z)-1-(4-(N-(3-bromo-4-fluorophenyl)-N′-hydroxyaminoiminomethyl)-1,2,5-oxadiazole-3-substituted)-3-(thiophene-3-substituted)urea]"
< 0.001 µM,< 0.001 µM,"N=C(Nc1ccc(O)cc1)Nc1nonc1/C(=N/O)Nc1ccc(F)c(Br)c1 [Embodiment 141, (Z)-1-(4-(N-(3-bromo-4-fluorophenyl)-N′-hydroxyaminoiminomethyl)-1,2,5-oxadiazole-3-substituted)-3-(4-hydroxyphenyl)guanidine]"
0.1 to 1 µM,0.1 to 1 µM,"O=C(Nc1nonc1/C(=N/O)Nc1ccc(F)c(Br)c1)NC1CC1 [Embodiment 32, (Z)-1-(4-(N-(3-bromo-4-fluorophenyl)-N′-hydroxyaminoiminomethyl)-1,2,5-oxadiazole-3-substituted)-3-cyclopropylurea]"
0.1 to 1 µM,0.1 to 1 µM,"N=C(Nc1nonc1/C(=N/O)Nc1ccc(F)c(Br)c1)NC1CCC(N)CC1 (stereo not drawn) [Embodiment 150, (Z)-1-(4-(N-(3-bromo-4-fluorophenyl)-N′-hydroxyaminoiminomethyl)-1,2,5-oxadiazole-3-substituted)-3-(4-aminocyclohexyl)guanidine]"
0.1 to 1 µM,0.1 to 1 µM,"COc1ccc(NC(=S)Nc2nonc2/C(=N/O)Nc2ccc(F)c(Br)c2)cc1 [Embodiment 115, (Z)-1-(4-(N-(3-bromo-4-fluorophenyl)-N′-hydroxyaminoiminomethyl)-1,2,5-oxadiazole-3-substituted)-3-(4-methoxyphenyl)thiourea]"
0.1 to 1 µM,0.1 to 1 µM,"CCc1cccc(NC(=O)Nc2nonc2/C(=N/O)Nc2ccc(F)c(Br)c2)c1 [Embodiment 2, (Z)-1-(4-(N-(3-bromo-4-fluorophenyl)-N′-hydroxyaminoiminomethyl)-1,2,5-oxadiazole-3-substituted)-3-(3-ethylphenyl)urea]"
